PubChem BioAssay (NCI)
Values joined by “and” are separate entries in the source; they are usually repeats but may differ in a detail not shown here. Equal entries are not always repeated.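 Where inhibition never reached the appropriate level, the endpoint shown equals the highest concentration tested. Otherwise, values were interpolated linearly from a five-concentration, 48-hour dose response in 96-well plates. The concentration for 50% growth inhibition is given as GI50. TGI denotes the concentration required for complete inhibition of growth.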

Tests used:
Test in all cases: NCI-60 cell line screen, 48 h
A549 NSCLC = tested on: A549 NSCLC
ACHN renal = tested on: ACHN renal
HCT-15 colon = tested on: HCT-15 colon
HL-60(TB) leukemia = tested on: HL-60(TB) leukemia
HOP-92 NSCLC = tested on: HOP-92 NSCLC
MALME-3M melanoma = tested on: MALME-3M melanoma
MDA-MB-435 = tested on: MDA-MB-435
MDA-N = tested on: MDA-N
RPMI-8226 leukemia = tested on: RPMI-8226 leukemia
UACC-257 melanoma = tested on: UACC-257 melanoma
SNB-19 CNS = tested on: SNB-19 CNS

| Structure (SMILES) | TGI (A549 NSCLC) [µM] | TGI (ACHN renal) [µM] | TGI (HCT-15 colon) [µM] | TGI (HL-60(TB) leukemia) | TGI (HOP-92 NSCLC) | TGI (MALME-3M melanoma) | TGI (MDA-MB-435) [µM] | TGI (MDA-N) [µM] | TGI (RPMI-8226 leukemia) [µM] | TGI (UACC-257 melanoma) [µM] | TGI (SNB-19 CNS) | GI50 (A549 NSCLC) [µM] | GI50 (HCT-15 colon) | GI50 (RPMI-8226 leukemia) [µM] | GI50 (UACC-257 melanoma) |
| --- | --- | --- | --- | --- | --- | --- | --- | --- | --- | --- | --- | --- | --- | --- | --- |
| CC1(C)CC2C(C1=O)C1(C)CCCC2(C)C1=O (stereo not drawn) | > 100 | > 100 | > 100 | > 100 µM | > 100 µM | > 100 µM | > 100 | > 100 | > 100 | > 100 |  |  |  |  |  |
| Cc1cc(C)c(N=Nc2c(O)c(S(=O)(=O)O)cc3cc(S(=O)(=O)O)ccc23)cc1C | > 100 | > 100 | > 100 |  | > 100 µM | > 100 µM | > 100 | > 100 | > 100 | > 100 | > 100 µM |  |  |  |  |
| CC(=O)O[C@H]1CC[C@H]2[C@@H]3CCC(C(C)=O)[C@H](C(=O)O)[C@H]3CC[C@]12C (stereo partly drawn) | > 100 |  | > 100 | > 100 µM | > 100 µM | > 100 µM | > 100 |  | > 100 | > 100 | > 100 µM |  |  |  |  |
| COc1cc2c(cc1OCCCCCOc1cc3c(cc1OC)C(=O)N1CCC[C@H]1CN3)N=C[C@@H]1CCCN1C2=O | 27 | 27.6 | 43.8 | 30 µM | 75.1 µM | 21.6 µM | 20.1 |  |  | 31.9 | > 100 µM |  |  |  |  |
| COc1ccccc1N=C1SCCN1C(=S)Nc1ccc(S(=O)(=O)/N=C/N(C)C)cc1 | > 100 | > 100 | > 100 | > 100 µM | > 100 µM |  | 76.9 | > 100 | 68.4 | > 100 | > 100 µM |  |  |  |  |
| CSC1=C(C(=O)Nc2ccccc2)C(N)=NC1=O | > 100 |  | > 100 | > 100 µM |  | > 100 µM | > 100 | > 100 | > 100 | > 100 | > 100 µM |  |  |  |  |
| CC1(C)C2CCC(N)(C2)C1O (stereo not drawn) | > 100 | > 100 | > 100 |  | > 100 µM |  | > 100 | > 100 | > 100 | > 100 | > 100 µM |  |  |  |  |
| COc1cccc(-c2cc(=O)c3cc(Cl)cnc3[nH]2)c1 | 31.6 | 55.4 | 31.9 |  | 63.9 µM | > 100 µM |  | 0.0239 | > 62.1 | > 100 | > 77.2 µM |  |  |  |  |
| CCN(CC)CCC(=O)c1ccc(Oc2ccc(F)cc2)cc1 | > 100 | 32.4 | 36.7 |  | 34 µM | 34.9 µM | 32.3 | 31.9 | 56.4 | 34 | 33.6 µM |  |  |  |  |
| Cc1cc(O)c(C(C)C)cc1N=Cc1ccccc1O | 43 | 23.9 | > 59.5 | 1.89 µM | 1.82 µM | 28.4 µM | 4.37 | 17 |  | 24.4 | 36.5 µM |  |  |  |  |
| C[N+](C)(N)c1nc(N)c(C#N)c(C#N)c1C#N | > 10 | > 10 | > 10 | > 10 µM |  | > 10 µM | > 10 | > 10 | > 10 |  | > 10 µM |  |  |  |  |
| C#CCOC(=O)C(N)CCSC (stereo not drawn) | > 100 | > 100 |  | > 100 µM | > 100 µM | > 100 µM | > 100 | > 100 | > 100 | > 100 |  |  |  |  |  |
| COc1cc2c(c(OC)c1OC)-c1ccc(SC)cc1C(=O)CC2 | > 100 | > 100 | > 100 | 10.8 µM | > 100 µM | > 21.9 µM | > 100 | 27.2 | > 47.7 |  | > 100 µM |  |  |  |  |
| CCCCCCCCCCSCC(CO)NC(=O)/C=C/c1c(C)[nH]c(=O)[nH]c1=O (stereo not drawn) | > 50 |  | > 50 | > 35.2 µM and 6.35 µM | 3.72 µM and > 20.3 µM | 6.28 µM and 2.78 µM |  |  | > 50 | > 50 | 13.7 µM and 12.4 µM | > 44.4 | 5.55 µM and 14.7 µM | 19.7 | 1770 nM and 3820 nM |
| COC(=O)[C@H](CCSC)NC(=O)c1ccc(CNC(=O)/C(C)=C/c2ccccc2)cc1 | > 100 | > 100 | > 100 |  | 72.2 µM | 29.5 µM | > 100 | > 100 | > 100 | 52.7 | 58.2 µM |  |  |  |  |
| CC(/C=N/NC1=NCCCN1)=N\NC1=NCCCN1 | > 100 | > 100 | > 100 |  | > 100 µM | > 100 µM | > 100 | > 100 | > 100 | > 100 | > 100 µM |  |  |  |  |
| Cc1ccc2c(=O)c(-c3n[nH]c(=S)s3)c[nH]c2n1 | > 100 | > 100 | > 100 | > 100 µM |  | > 100 µM | > 100 | > 100 | > 100 | > 100 | > 100 µM |  |  |  |  |
| NCCCC[C@H](N)C(=O)Nc1ccc(-c2nc3ccccc3s2)cc1Cl | 9.08 | 29.3 | 20.5 |  | 60 µM | 28.3 µM | 9.58 | 9.36 |  | 32.4 | 32.9 µM |  |  |  |  |
| O=C(NN=C1CCCCC1)NN=C1CCCCC1 |  |  | > 100 |  |  | > 100 µM | > 100 | > 100 |  | > 100 | > 100 µM |  |  |  |  |
| CC1=CC(=O)/C(=C/n2c(=S)[nH]c3ccccc32)C(=O)O1 | > 100 | > 100 | > 100 | > 100 µM | > 100 µM |  | > 100 | > 100 | > 100 | > 100 | > 100 µM |  |  |  |  |
| COc1ccc2c(c1)-c1[nH]c3ccccc3c1CC2 | 30.4 | 32.3 | 29.6 |  | 31.8 µM | 25.6 µM | 31.7 | 31.6 | 71.2 | 30.8 | 30.9 µM |  |  |  |  |
| CN(C)c1ccc(/C=c2/c3cc([N+](=O)[O-])ccc3n3c2cc(-c2ccccc2)[n+]3C)cc1 | 11.7 | 19.6 | 42.1 | 1.72 µM | 3.16 µM | 1.18 µM | 1.84 | 1.66 | 1.72 |  | 3.84 µM |  |  |  |  |
| CN(CCO)/N=N/c1[nH]ncc1C(N)=O | > 100 |  | > 100 | > 100 µM | > 100 µM | > 100 µM |  |  | > 100 | > 100 | > 100 µM |  |  |  |  |
